# According to PMC8570591 (ACS catalysis, 2021):
# Molecular target: T1, EanB (Chlorobium limicola, UniProt B3ECE3)
# T1 sequence (B3ECE3 1-457): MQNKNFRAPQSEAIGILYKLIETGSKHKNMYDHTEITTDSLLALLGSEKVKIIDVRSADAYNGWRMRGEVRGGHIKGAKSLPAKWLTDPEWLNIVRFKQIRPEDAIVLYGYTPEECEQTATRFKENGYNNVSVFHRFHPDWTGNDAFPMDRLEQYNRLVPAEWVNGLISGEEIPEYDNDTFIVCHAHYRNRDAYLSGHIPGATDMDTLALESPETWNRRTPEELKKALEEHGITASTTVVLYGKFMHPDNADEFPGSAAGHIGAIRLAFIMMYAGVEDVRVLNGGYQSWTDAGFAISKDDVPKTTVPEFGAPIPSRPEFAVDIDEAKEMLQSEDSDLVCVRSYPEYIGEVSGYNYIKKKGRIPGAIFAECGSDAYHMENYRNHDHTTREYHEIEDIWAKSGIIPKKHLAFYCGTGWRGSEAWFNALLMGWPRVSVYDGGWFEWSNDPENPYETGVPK
# Experiment: hercynine epsilon-C-H/D2O exchange kinetics by LC-MS, purified enzyme
# Assay type: biochemical
smiles,measurement,value
"C[N+](C)(C)[C@@H](Cc1cnc[nH]1)C(=O)[O-] [compound 2, hercynine]",Kd,161 ± 18.6 µM
